In patent US20100137449A1, “SUBSTITUTED 1,3-CYCLOPENTADIONE MULTI-TARGET PROTEIN KINASE MODULATORS OF CANCER, ANGIOGENESIS AND THE INFLAMMATORY PATHWAYS ASSOCIATED THEREWITH” (METAPROTEOMICS, LLC, priority 2007, published 2010):

Experiments:
Test in all cases: KinaseProfiler Assay
PKCε(h) = biological target: T1, PKCε(h) (Homo sapiens, UniProt Q02156)
T1 sequence (Q02156 1-737): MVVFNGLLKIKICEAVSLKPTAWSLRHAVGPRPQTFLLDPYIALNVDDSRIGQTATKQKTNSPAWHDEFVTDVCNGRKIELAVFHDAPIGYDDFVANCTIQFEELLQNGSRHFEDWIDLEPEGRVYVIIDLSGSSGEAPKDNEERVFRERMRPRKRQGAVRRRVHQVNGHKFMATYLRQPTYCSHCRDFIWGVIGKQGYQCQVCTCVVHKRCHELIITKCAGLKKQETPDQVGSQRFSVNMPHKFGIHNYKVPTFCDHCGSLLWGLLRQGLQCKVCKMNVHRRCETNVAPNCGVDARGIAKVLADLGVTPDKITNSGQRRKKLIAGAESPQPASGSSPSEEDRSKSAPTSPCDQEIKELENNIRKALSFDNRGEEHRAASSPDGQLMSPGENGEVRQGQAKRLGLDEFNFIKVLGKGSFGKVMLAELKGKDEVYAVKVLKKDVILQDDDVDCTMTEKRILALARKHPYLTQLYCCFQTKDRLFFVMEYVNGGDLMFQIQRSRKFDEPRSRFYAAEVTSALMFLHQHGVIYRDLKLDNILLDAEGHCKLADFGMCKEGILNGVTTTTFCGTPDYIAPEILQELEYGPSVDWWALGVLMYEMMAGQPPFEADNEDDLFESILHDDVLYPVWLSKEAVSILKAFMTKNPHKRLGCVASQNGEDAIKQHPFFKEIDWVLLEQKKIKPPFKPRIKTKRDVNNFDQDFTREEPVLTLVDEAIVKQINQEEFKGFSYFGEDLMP

IRAK1(h) = IRAK1(h) (Homo sapiens, UniProt P51617)
Sequence of IRAK1(h) (P51617 whole entry): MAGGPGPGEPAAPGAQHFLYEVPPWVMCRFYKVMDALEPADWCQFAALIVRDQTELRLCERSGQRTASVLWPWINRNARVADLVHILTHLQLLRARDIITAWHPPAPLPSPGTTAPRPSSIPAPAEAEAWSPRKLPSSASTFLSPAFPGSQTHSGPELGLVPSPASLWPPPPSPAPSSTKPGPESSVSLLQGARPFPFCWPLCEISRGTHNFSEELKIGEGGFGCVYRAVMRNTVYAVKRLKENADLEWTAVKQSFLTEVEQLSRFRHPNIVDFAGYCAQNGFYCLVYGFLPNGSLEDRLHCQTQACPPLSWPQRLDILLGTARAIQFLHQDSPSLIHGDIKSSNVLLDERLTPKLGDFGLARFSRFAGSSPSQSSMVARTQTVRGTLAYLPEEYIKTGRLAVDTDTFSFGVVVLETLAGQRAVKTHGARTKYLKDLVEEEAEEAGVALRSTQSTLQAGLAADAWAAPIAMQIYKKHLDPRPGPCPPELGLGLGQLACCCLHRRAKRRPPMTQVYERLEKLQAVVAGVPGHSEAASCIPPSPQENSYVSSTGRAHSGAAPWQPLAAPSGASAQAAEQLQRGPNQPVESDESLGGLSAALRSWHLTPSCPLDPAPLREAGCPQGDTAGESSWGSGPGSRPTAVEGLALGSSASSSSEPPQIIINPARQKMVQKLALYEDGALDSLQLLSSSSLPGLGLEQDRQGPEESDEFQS

ZAP-70(h) = biological target: T2, ZAP-70(h) (Homo sapiens, UniProt P43403)
T2 sequence (P43403 1-619): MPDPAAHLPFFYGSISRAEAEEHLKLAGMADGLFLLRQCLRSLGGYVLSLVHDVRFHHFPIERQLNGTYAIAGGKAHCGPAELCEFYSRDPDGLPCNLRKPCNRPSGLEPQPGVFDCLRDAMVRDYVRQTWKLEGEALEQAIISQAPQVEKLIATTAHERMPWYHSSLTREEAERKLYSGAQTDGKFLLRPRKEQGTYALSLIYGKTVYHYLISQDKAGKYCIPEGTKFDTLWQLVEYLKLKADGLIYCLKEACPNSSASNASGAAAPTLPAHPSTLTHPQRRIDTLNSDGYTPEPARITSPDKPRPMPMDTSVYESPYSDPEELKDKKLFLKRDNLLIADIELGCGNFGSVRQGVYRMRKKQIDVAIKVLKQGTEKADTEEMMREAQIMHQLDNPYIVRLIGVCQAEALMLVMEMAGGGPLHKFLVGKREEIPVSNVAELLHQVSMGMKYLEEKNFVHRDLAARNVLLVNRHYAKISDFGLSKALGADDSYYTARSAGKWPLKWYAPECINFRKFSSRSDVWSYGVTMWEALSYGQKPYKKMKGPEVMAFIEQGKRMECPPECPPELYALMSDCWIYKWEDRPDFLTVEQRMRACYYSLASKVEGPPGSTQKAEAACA

Bmx(h) = biological target: T3, Bmx(h) (Homo sapiens, UniProt P51813)
T3 sequence (P51813 1-675): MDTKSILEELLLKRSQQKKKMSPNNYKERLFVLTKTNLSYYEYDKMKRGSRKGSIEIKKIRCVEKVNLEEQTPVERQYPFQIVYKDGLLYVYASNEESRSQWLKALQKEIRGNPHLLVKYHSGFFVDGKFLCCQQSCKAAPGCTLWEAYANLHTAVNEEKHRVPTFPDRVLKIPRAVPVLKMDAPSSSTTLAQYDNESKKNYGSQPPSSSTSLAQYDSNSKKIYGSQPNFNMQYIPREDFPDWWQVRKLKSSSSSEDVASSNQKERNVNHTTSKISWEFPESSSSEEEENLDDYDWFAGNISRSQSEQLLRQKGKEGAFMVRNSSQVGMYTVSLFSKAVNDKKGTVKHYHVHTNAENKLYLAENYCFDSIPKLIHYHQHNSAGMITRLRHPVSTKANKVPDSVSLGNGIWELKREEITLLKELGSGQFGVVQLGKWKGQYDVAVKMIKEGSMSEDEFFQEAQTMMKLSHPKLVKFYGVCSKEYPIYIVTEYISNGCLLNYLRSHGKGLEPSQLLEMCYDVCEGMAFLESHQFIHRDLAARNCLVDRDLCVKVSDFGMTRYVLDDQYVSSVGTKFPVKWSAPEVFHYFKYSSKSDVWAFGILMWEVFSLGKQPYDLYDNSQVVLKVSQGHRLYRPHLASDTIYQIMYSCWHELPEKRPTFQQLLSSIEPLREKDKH

NEK7(h) = NEK7(h) (Homo sapiens, UniProt Q8TDX7)
Sequence of NEK7(h) (Q8TDX7 whole entry): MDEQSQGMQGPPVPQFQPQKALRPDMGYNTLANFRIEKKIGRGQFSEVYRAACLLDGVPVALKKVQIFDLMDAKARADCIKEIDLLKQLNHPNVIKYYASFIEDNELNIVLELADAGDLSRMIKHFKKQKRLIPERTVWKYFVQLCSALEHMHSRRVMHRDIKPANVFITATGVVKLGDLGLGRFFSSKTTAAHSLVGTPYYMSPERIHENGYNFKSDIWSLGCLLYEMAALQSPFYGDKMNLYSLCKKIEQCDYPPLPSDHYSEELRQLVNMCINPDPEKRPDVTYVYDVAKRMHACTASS

`CC(C)CCC(=O)[C@]1(O)C(O)=C(C(=O)C(C)C)C(=O)[C@H]1CCC(C)C` [TH2, tetrahydroiso-cohumulone] was tested, and the kinase inhibition (PKCε(h); 1 μg/ml) was 105% of control, the kinase inhibition (PKCε(h); 5 μg/ml) was 102% of control and the kinase inhibition (PKCε(h); 25 μg/ml) was 98% of control. The kinase inhibition (PKCε(h); 50 μg/ml) was 102% of control, the kinase inhibition (PKCε(h); 100 μg/ml) was 90% of control and the kinase inhibition (IRAK1(h); 1 μg/ml) was 99% of control. For the same compound, the kinase inhibition (IRAK1(h); 5 μg/ml) was 112% of control, the kinase inhibition (IRAK1(h); 25 μg/ml) was 37% of control and the kinase inhibition (IRAK1(h); 50 μg/ml) was 39% of control. The kinase inhibition (IRAK1(h); 100 μg/ml) was 39% of control, the kinase inhibition (ZAP-70(h); 1 μg/ml) was 125% of control and the kinase inhibition (ZAP-70(h); 5 μg/ml) was 110% of control. For the same compound, the kinase inhibition (ZAP-70(h); 25 μg/ml) was 124% of control, the kinase inhibition (ZAP-70(h); 50 μg/ml) was 124% of control and the kinase inhibition (ZAP-70(h); 100 μg/ml) was 107% of control. For the same compound, the kinase inhibition (Bmx(h); 1 μg/ml) was 88% of control, the kinase inhibition (Bmx(h); 5 μg/ml) was 90% of control and the kinase inhibition (Bmx(h); 25 μg/ml) was 89% of control. For the same compound, the kinase inhibition (Bmx(h); 50 μg/ml) was 79% of control, the kinase inhibition (Bmx(h); 100 μg/ml) was 61% of control and the kinase inhibition (NEK7(h); 1 μg/ml) was 103% of control. For the same compound, the kinase inhibition (NEK7(h); 5 μg/ml) was 107% of control, the kinase inhibition (NEK7(h); 25 μg/ml) was 98% of control and the kinase inhibition (NEK7(h); 50 μg/ml) was 95% of control. For the same compound, the kinase inhibition (NEK7(h); 100 μg/ml) was 84% of control.
